{"source": "patent US20110245197A1", "about": "“HYPERSULFATED GLUCOPYRANOSIDES” (OPKO Health, Inc., priority 2010, published 2011)", "system": "allergic sheep (dual bronchoconstrictor responders to Ascaris suum antigen)", "assay": "Antigen-induced change in specific pulmonary airflow resistance (SRL): early (EAR) and late (LAR) airway response in allergic sheep", "format": "in vivo", "method": "Pulmonary airflow resistance was measured by taking allergic sheep previously verified as dual bronchoconstrictor responders to Ascaris suum antigen. The sheep were intubated with a cuffed nasotracheal tube and pulmonary airflow resistance (RL) was measured by the esophageal balloon catheter technique, while thoracic gas volume was measured by body plethysmography. Data were expressed as specific RL (SRL, defined as RL times thoracic gas volume (Vtg)). Airway responsiveness was determined by first securing cumulative dose response curves to inhaled carbachol (a constrictor agonist) by measuring SRL before and after inhalation of buffered saline and after each administration of 10 breaths of increasing concentrations of carbachol (0.25, 0.5, 1.0, 2.0 and 4.0% wt/vol solution). Airway responsiveness was measured by determining the cumulative provocation dose (PD400) of carbachol (in breath units) that increased SRL to 400% above baseline. One breath unit was defined as one breath of 1% carbachol solution.\nTo illustrate the effectiveness of the formulations according to the invention to treat and alleviate allergen related diseases and conditions, including but not limited to the specific diseases and conditions recited herein, sheep were assessed in multiple experiments which compared various formulations containing no added polymer or additive to animals which were provided formulations comprising a compound of formula I (as compound 1a) along with an optional additive selected from a polymer. To measure pulmonary airflow resistance, the sheep were intubated with a cuffed nasotracheal tube and pulmonary airflow resistance (RL) was measured by the esophageal balloon catheter technique, while thoracic gas volume was measured by body plethysmography. […] Data were expressed as specific RL (SRL defined as RL× thoracic gas volume (Vg).\nFor airway studies, each animal's baseline airway responsiveness (PD400)) was determined and then, on different experimental days, the test sheep underwent airway challenge with Ascaris suum antigen. […]", "key": {"[1]": {"details": "aerosol 0.5 mgs/kg (approximately 20 mgs), thirty minutes before antigen challenge, n=5 (FIG. 11)"}}, "data": [{"substance": "aluminum salt of octasulfated sucrose", "values": [{"measurement": "LAR % protection", "setting": "[1]", "result": 0, "unit": "%"}, {"measurement": "effect on EAR", "setting": "[1]", "result": "no significant effect"}, {"measurement": "effectiveness (general statement)", "setting": "general statement in the description, supported by FIG. 11", "result": "not effective"}]}]}
